This is an account of results in publication PMC8667898, “Topo II inhibition and DNA intercalation by new phthalazine-based derivatives as potent anticancer agents: design, synthesis, anti-proliferative, docking, and in vivo studies” (Journal of Enzyme Inhibition and Medicinal Chemistry, 2021).

Where “and” joins values, the source holds several entries; their conditions need not be identical. Identical values can stand only once.

The test system of data set [1] is HepG-2 cells (hepatocellular carcinoma). The data set is described as follows: MTT anti-proliferative assay, HepG-2. Format: cell-based, human. As for the experimental part: Anti-proliferative activities of the target compounds were assessed via the standard MTT method[38–40] against three cancer cell lines, namely, hepatocellular carcinoma (HepG-2), colorectal carcinoma (HCT-116), and human breast adenocarcinoma (MCF-7).
(§1) Anti-proliferative activity of the synthesised compounds was estimated using the MTT assay protocol[8]^,[38–40] as shown in Supplementary data.
(§2) 4.2.1. In vitro anti-proliferative activity against MCF-7, HepG-2 and HCT-116 The cells were cultured in RPMI-1640 medium supplemented with 10% fetal bovine serum (FBS), penicillin (100 unit /mL) and streptomycin sulphate (100µg/mL) at 37 °C in a 5% CO2 incubator.
(§3) Then, cells were dropped in 96-well plates at a density of 3-8 × 10^3 cells/well and incubated for two days in a 5% CO2 incubator at 37 °C. Then, the cells were treated with the synthesized compounds and the cell cultures were continued incubated for 24 h. However, Different concentrations of the compound under test (0.0, 5.0, 12.5, 25.0 and 50 mg/ml) were added to the cell monolayer. Then, (3-[4,5-dimethylthiazol-2-yl]- 2,5-diphenyltetrazolium bromide) MTT solution (20 µl, 5mg/mL) was added to each well and incubated for additional 4 h. The formed purple crystals of MTT-formazan were dissolved in 100 µl DMSO each well; the absorbance of each well was measured at 570 nm using a plate reader (EXL 800, USA). All of the compounds were tested three times. The relative cell viability in percentage was calculated.
(§4) The data represented the mean of three independent experiments in triplicate and were expressed as means ± SD. […]
Background: Formazan colour is commonly taken as a measure of viable cells.

Data set [2] has as its system HCT-116 cells (colorectal carcinoma). The data set is described as follows: MTT anti-proliferative assay, HCT-116. Format: cell-based, human. As for the experimental part: Anti-proliferative activities of the target compounds were assessed via the standard MTT method[38–40] against three cancer cell lines, namely, hepatocellular carcinoma (HepG-2), colorectal carcinoma (HCT-116), and human breast adenocarcinoma (MCF-7). Doxorubicin was used in this test as a positive control.
as §1, §2
as §3, with “calculated. The results for IC50 values of the active compounds are […]” for “calculated.”
as §4
of the cells could survive. […]

Data set [3] can be described thus: Hematological and biochemical blood assays in SEC-bearing mice. The following applies: 5 mg/kg BW, Mean ± SEM (n = 7), 5 mg/kg. Format: in vivo, Swiss albino mice. As for the experimental part:
At the end of the experiment, animals from different groups were sacrificed, and blood samples were collected for hematological parameters, including Hb, RBC’s, and WBC’s levels, and serum for determination of liver enzymes ALT, AST levels, and proteins.
The experimental animals were randomly divided into four groups. Group 1 served as the normal saline control (5 ml/kg B.Wt., I.P.). Group 2 served as the SEC control (1 × 10^6 cells/mouse). Group 3 served as the compound-treated group (5 mg/kg B.Wt., I.P.). […] Bodyweight and survival were recorded daily until the 24th day in both treated and control groups. At the end of the experiment, the blood of each group was collected under light anaesthesia to the estimate of hematological and biochemical assays. The anaesthetised animals were then sacrificed for evaluation of the antitumor activity and histopathological examination.
At the end of the experiment, animals from different groups were sacrificed, and blood samples were collected for hematological parameters including, Hb, RBC’s, and WBC’s levels, and serum for determination of liver enzymes ALT, AST levels, and proteins. Complete blood count (CBC) was investigated using the Abbott CELL-DYN®1800 automated haematology analyser (USA) using ready-made kits (Abbott Laboratories, Abbott Park, IL, USA). Activities of aspartate aminotransferase (AST) and alanine aminotransferase (ALT) were evaluated using commercial kits (ELITech clinical systems, France). Serum albumin level was determined by kit purchased from STANBIO Company (USA). Protein content was determined by colorimetric method using ready-made kits produced by Instrumentation Laboratory SpA, Inova diagnostics, Milano, Italy.

Where [4] appears, read: ratio of IC50 values vs doxorubicin.

`CCCc1nnc2c3ccccc3c(NN=Cc3ccc([N+](=O)[O-])cc3)nn12` [Compound 9d, 6-[2–(4-Nitrobenzylidene)hydrazineyl]-3-propyl-[1,2, 4]triazolo[3,4-a]phthalazine]: the IC50 (commonly the concentration at which inhibition is half-maximal) in data set [1] (Homo sapiens, HepG2, MTT, mean ± SD of three separate experiments, read-out: In vitro Cytotoxicity IC50 HepG-2) came out at 5.08 ± 0.17 µM. Moreover, in data set [1] (setting [4]), the “times more active than doxorubicin, HepG2” value was determined as 1.63 times. Moreover, the half-maximal inhibitory concentration (IC50) in data set [2] (Homo sapiens, HCT-116, MTT, mean ± SD of three separate experiments, read-out: In vitro Cytotoxicity IC50 HCT-116) amounted to 4.74 ± 0.15 µM. In data set [2] (setting [4]), the “times more active than doxorubicin, HCT-116” value was 2.03 times. In data set [3], the ALT is 42.9 U/L, the AST was 55.6 U/L, the Albumin is 6.25 g/dL and the Hb came out at 8.2 g/dL. Also, in data set [3], the RBCs count was 5.37 ×10^6/µL and 5.37 ± 0.37 ×10^6/µL; the “Total Protein” value is on record as 8.04 g/dL; the WBCs count turned out to be 3720 µL⁻¹.
